The numbers were not newly measured in US10576062B2, “Carbamoyloxymethyl triazole cyclohexyl acids as LPA antagonists” (Bristol-Myers Squibb Company, priority 2016, dated 2020), which cites them from elsewhere.

The subject of series [1] is nerve-injured mice. Conditions: pretreatment; cited from earlier work.
The test system of series [2] is mouse epithelial renal cell line, MCT. Conditions: MCT cells, co-treatment with LPA; cited from earlier work.
In series [3] the test system is UUO mice. Conditions: UUO mice treated with the antagonist; cited from earlier work.
Series [4] relates to human foetal lung fibroblasts. Conditions: cited from earlier work.
The subject of series [5] is pancreatic cancer cell lines. Conditions: cited from earlier work.

SMILES strings stand for the structures.

Take `C[C@@H](N)[C@H]1CC[C@H](C(=O)Nc2ccncc2)CC1` [Example Y-27632]: the allodynia and hyperalgesia entry in series [1] is listed as “completely abolished”.
As for `Cc1noc(-c2ccc(CSCCC(=O)O)cc2)c1NC(=O)OC(C)c1ccccc1Cl` (stereo not drawn) [Ki16425], the “LPA-induced increase in expression of CTGF” value in series [2] is recorded as “almost completely suppressed”. The “development of renal fibrosis in UUO mice” value in series [3] is “closely resembled the profile of LPA1 (−/−) mice”. Also, the “chemotaxis of human foetal lung fibroblasts induced by BAL from IPF patients” value in series [4] is given as “blocked”. The “LPA-induced and ascites-induced invasion activity” value in series [5] (highly peritoneal metastatic pancreatic cancer cell line) is reported as “blocked”. Further, in series [5] (pancreatic cancer cell lines), the “in vitro migration in response to LPA and peritoneal fluid (ascites) from pancreatic cancer patients” value was “effectively blocked”.
